In brackets after ≈: the same amount, converted by molar mass. Like-named read-outs stand apart in the source and are kept apart here.
Assays:
[1] = test system: T. b. brucei 427; assay: T. b. brucei 427 growth inhibition (Scynexis); assay type: cell-based, Trypanosoma brucei brucei
[2] = test system: T. b. rhodesiense; assay: T. b. rhodesiense growth inhibition (University of Antwerp); assay type: cell-based, Trypanosoma brucei rhodesiense; conditions: for IC50: mean of 2 to 5 determinations, read-out: IC50 T. b. rhod
[3] = test system: human lung fibroblasts (MRC-5 cells); assay: Cytotoxicity toward MRC-5 cells (University of Antwerp); assay type: cell-based
[4] = Mouse liver microsomal stability; assay type: in vitro ADME; conditions: CD-1 mouse liver microsomes
[5] = test system: T. b. brucei (TREU 667); assay: CNS (stage 2, chronic) HAT infection mouse model; assay type: in vivo, T. b. brucei; female Swiss Webster mice
Protocol: Therefore, 24 was examined in a stage 1 HAT mouse model.[14] Briefly, dosing was orally once daily for four days, starting 24 h postinfection, and parasitemia was assessed weekly via tail vein blood smears (see the Supporting Information). Excellent activity was observed (Table 4), with 24 providing complete cures (i.e. parasite free blood smears after >30 days) to all mice at doses as low as 5 mg/kg, similar to the control drug pentamidine (given i.p. at 2 mg/kg), whereas the vehicle only mice died on day 7. […]
Mouse Model for Chronic HAT Inf ection. Compound 24 was tested for in vi vo efficac y against chronic HAT infection caused b y T. b. brucei (TREU 667 strain) at the Haskin s Laboratories, Pace Universit y. […]
suspension formulation (0.8% CMC, 0.1% SDS in water) to groups of 8 or 10infected f emal e Swiss Webster mice, starting 21 d postinfection, according to a report ed method. 5 Animals remaining parasite free for more than 180 da ys beyond the end of the treatment period were […]

[6] = test system: T. b. brucei (EATRO 110); assay: Acute (stage 1) HAT infection mouse model; assay type: in vivo, T. b. brucei; female Swiss Webster mice
Protocol: Therefore, 24 was examined in a stage 1 HAT mouse model.[14] Briefly, dosing was orally once daily for four days, starting 24 h postinfection, and parasitemia was assessed weekly via tail vein blood smears (see the Supporting Information). Excellent activity was observed (Table 4), with 24 providing complete cures (i.e. parasite free blood smears after >30 days) to all mice at doses as low as 5 mg/kg, similar to the control drug pentamidine (given i.p. at 2 mg/kg), whereas the vehicle only mice died on day 7. […] Here, oral dosing of 24 (at 12.5 to 50 mg/kg once daily for seven days from day 21 postinfection) led to significant increases in survival times in comparison to untreated controls (66–70 days vs 31 days; Table 5), although cure rates were inadequate (0–20%). […]
Mouse Model f or Acu te HAT Inf ection. Compound 24 was tested for in vivo effi cac y against acute HAT infection caused b y T. b. brucei (EATRO 110 strain) at the Haskins Laboratories, Pace Universit y. […] Infected animals or th ose showing si gns of infectionwer e euthanized.Untreated infected contr ol animals died after 5-7 days; mice remaining parasite free for more than 30 da ys beyond the end of the tr eatment period w er e con sidered cur ed. […]

[7] = test system: Leishmania infantum; assay: L. infantum growth inhibition (University of Antwerp); assay type: cell-based; conditions: mean of 2 to 5 determinations
[8] = test system: L929 mouse fibroblasts; assay: Cytotoxicity toward L929 mouse fibroblasts (Scynexis); assay type: cell-based
[9] = Human liver microsomal stability; assay type: in vitro ADME; conditions: pooled human liver microsomes
[10] = test system: Trypanosoma cruzi; assay: T. cruzi growth inhibition (University of Antwerp); assay type: cell-based; conditions: mean of 2 to 5 determinations
[11] = test system: T. b. brucei 427; assay: T. b. brucei growth inhibition (University of Antwerp); assay type: cell-based, Trypanosoma brucei brucei; conditions: for IC50: T. b. brucei 427, mean of 2 to 5 determinations, read-out: IC50 T. b. bruc
[12] = Kinetic solubility in water or 0.1 M HCl (ACSRC); assay type: physicochemical; conditions: read-out: aqueous solubility
[13] = in vitro; conditions: dog, MDCK-MDR1
[14] = test system: T. b. brucei (TREU 667); conditions: cited from earlier work
[15] = 12.5 mg/kg orally once daily for 7 d from day 21 postinfection
[16] = 25 mg/kg orally once daily for 7 d from day 21 postinfection
[17] = 50 mg/kg orally once daily for 7 d from day 21 postinfection
[18] = 1.25 mg/kg orally once daily for 4 days
[19] = 2.5 mg/kg orally once daily for 4 days
[20] = 5 mg/kg orally once daily for 4 days
[21] = 12.5 mg/kg orally once daily for 4 days
[22] = 25 mg/kg orally once daily for 4 days
[23] = 50 mg/kg orally once daily for 4 days

In the case of `O=[N+]([O-])c1cn2c(n1)[S@+]([O-])C[C@@H](OCc1ccc(OC(F)(F)F)cc1)C2` [Compound 24], the “Selectivity Index” value ([1]; L929 vs T. b. brucei) is reported as over 143, the “potency relative to (6R) enantiomer 26 (fold more potent)” value ([1]; T. b. brucei) is reported as “more than 70 fold” and the “potency relative to cis isomer 25 (fold more potent)” value ([1]; T. b. brucei) is reported as 40 fold. The IC50 ([1]; Trypanosoma brucei, growth inhibition of T. b. brucei 427, mean ± SD) was 0.07 ± 0.005 µg/mL (≈ 0.179 µM), the IC50 ([2]; Trypanosoma brucei, RHODESIENSE) was 130 nM and the IC50 ([3]; Homo sapiens, MRC5, cytotoxicity toward human lung fibroblasts) was 50000 nM. The remaining at 1 h [4] was 96%, the Cured [5, 15] was 0% and the Cured/Total [5, 15] was 0/8. The Mean relapse time [5, 15] was 45 days, the Cured [5, 16] was 20% and the Cured/Total [5, 16] was 2/10. For the same compound, the Mean relapse time [5, 16] was 70 days, the Cured [5, 17] was 0% and the Cured/Total [5, 17] was 0/10. For the same compound, the Mean relapse time [5, 17] was 66 days, the cure rates ([5]; 12.5 to 50 mg/kg orally once daily for seven days from day 21) was 0–20% and the Cured [6, 18] was 0%. The Cured/Total [6, 18] was 0/4, the Mean survival [6, 18] was 7.5 days and the Cured [6, 19] was 25%. The Cured/Total [6, 19] was 1/4, the Mean survival [6, 19] was 13 days and the Cured [6, 20] was 100%. The Cured/Total [6, 20] was 4/4, the Mean survival [6, 20] was over 30 days and the Cured [6, 21] was 100%. For the same compound, the Cured/Total [6, 21] was 5/5, the Mean survival [6, 21] was over 30 days and the Cured [6, 22] was 100%. The Cured/Total [6, 22] was 5/5, the Mean survival [6, 22] was over 30 days and the Cured [6, 23] was 100%. The Cured/Total [6, 23] was 5/5, the Mean survival [6, 23] was over 30 days and the “lowest dose providing complete cures to all mice” value ([6]; orally once daily for four days) was 5 mg/kg. The “efficacy relative to results described for fexinidazole (4) (fold superior)” value ([6]; stage 1 HAT mouse model) was about 20 fold, the IC50 ([7]; Leishmania infantum) was 10000 nM and the IC50 [8] was over 10 µg/mL. For the same compound, the remaining at 1 h [9] was 82%, the IC50 ([10]; Trypanosoma cruzi) was 1400 nM and the IC50 ([11]; Trypanosoma brucei) was 140 nM. The solubility at 15 min ([12]; water) was 106 µg/mL (≈ 271 µM).

In the case of `O=[N+]([O-])c1cn2c(n1)[S+]([O-])CC(OCc1ccc(-c3ccc(OC(F)(F)F)cc3)cn1)C2` (stereo not drawn) [Compound 35, 2-Nitro-6-({5-[4-(trifluoromethoxy)phenyl]pyridin-2-yl}methoxy)-6,7-dihydro-5H-imidazo[2,1-b][1,3]thiazine 8-oxide], the “potency against T. b. rhodesiense relative to 12 (fold higher)” value [2] is reported as 11 fold, the IC50 [2] is reported as 23 nM and the “selectivity index (MRC-5 IC50 / HAT IC50)” value [3] is reported as over 500 times. For the same compound, the “selectivity index relative to 12 (fold better)” value [3] was 2.4 fold, the IC50 ([3]; cytotoxicity toward human lung fibroblasts) was 16000 nM and the remaining at 1 h [4] was 72%. The Papp A→B at 150 min, 2 µM [13] was 11.7 ×10⁻⁶ cm/s, the Papp B→A at 150 min, 2 µM [13] was 18.2 ×10⁻⁶ cm/s and the IC50 [7] was 410 nM. The remaining at 1 h [9] was 78%, the IC50 [10] was 67 nM and the “potency against T. b. brucei relative to 12 (fold greater)” value [11] was 9 fold. It also gave an IC50 [11] of 30 nM, a solubility at 15 min ([12]; 0.1 M HCl, pH 1) of 1260 µg/mL (≈ 2690 µM) and a solubility at 15 min ([12]; water, pH 7) of 9.9 µg/mL (≈ 21.1 µM).

For `O=C(Nc1ccc2c(c1)B(O)OC2)c1ccc(F)cc1C(F)(F)F` [SCYX-6759], the “cure rate of the CNS infection” value ([14]; oral 50 mg/kg twice daily (b.i.d.)) is listed as 83%.

In the case of `CC1(C)OB(O)c2cc(NC(=O)c3ccc(F)cc3C(F)(F)F)ccc21` [Compound 5], the cure rate ([14]; same CNS model, 25 mg/kg once daily for 7 days) is given as 100%.
